The text below walks through data of patent publication US20110281854A1, “MORPHOLINE COMPOUNDS” (Pfizer Inc, priority 2010, published 2011).

In the assay the target is T1, MR (Homo sapiens, UniProt P08235).
T1 construct: expressed in transfected cells; host or cells: Huh7 human liver cells (ATCC), transient transfection with FuGENE 6
T1 sequence (P08235 726-964 limits assumed): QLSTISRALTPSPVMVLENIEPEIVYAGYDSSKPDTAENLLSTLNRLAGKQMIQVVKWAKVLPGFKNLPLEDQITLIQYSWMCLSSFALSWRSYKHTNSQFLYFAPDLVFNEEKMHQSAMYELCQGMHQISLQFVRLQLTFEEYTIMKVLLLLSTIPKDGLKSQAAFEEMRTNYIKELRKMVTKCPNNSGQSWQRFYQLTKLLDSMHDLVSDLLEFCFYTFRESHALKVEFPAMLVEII
In words: Cell-based reporter assay (Gal4-MR-LBD luciferase, antagonist mode). The procedure:
To measure the ability of test compound in the present invention to modulate the activity of MR (agonize, antagonize, partially agonize, partially antagonize), bioassays were performed that measured the modulation of reporter gene expression. Cells were transiently transfected with a luciferase reporter gene under the control of a Gal4 response element (Gal4-RE-luc) and a plasmid containing the Gal4 DNA binding domain fused to the MR ligand binding domain (Gal4-MR-LBD). Agonists can bind to and activate the MR-LBD, which activates the expression of the luciferase reporter gene through interaction with the Gal4 response element. […] Antagonists can compete for binding to the NHR-LBD and decrease the agonist-induced transcriptional activity of the reporter gene. Therefore, measurement of luciferase activity allowed quantitative determinations of the reporter transcription in the presence of either agonists or competitive antagonists.
The final concentration of DMSO in the test plate was 0.5%. Following an overnight incubation with compound, 25 μL of Steady-Glow™ lysis buffer with luciferase substrate (Promega Corporation, E2550) was added directly to the cells. After a 30-minute incubation to completely lyse the cells, the microplates were counted in an Envision™ Multilabel Reader (Perkin Elmer) in single photon counting mode.
For orientation: A reporter such as luciferase makes a cellular process visible.

The term IC50 denotes the concentration that gives 50% inhibition. A low value points to inhibition by little substance. For `C[C@@H]1CN(c2ccc3oc(=O)[nH]c3c2)[C@H](c2ccccc2)CO1` [Example 45, 5-((2R,5R)-2-methyl-5-phenylmorpholino)benzo[d]oxazol-2(3H)-one], inhibition was half-maximal at 349 nM (IC50).

On to `O=C1COc2ccc(N3CCOC[C@H]3c3ccccc3)nc2N1` [Example 16, (R)-6-(3-phenylmorpholino)-2H-pyrido[3,2-b][1,4]oxazin-3(4H)-one], for which the IC50 came to 1970 nM.

`C[C@@H]1CN(c2ccc3ncc(=O)[nH]c3c2)[C@H](c2ccccc2)CO1` [Example 3, 7-((2R,5R)-2-methyl-5-phenylmorpholino)quinoxalin-2(1H)-one] registered a half-maximal inhibitory concentration (IC50) of 157 nM.

Consider `Cc1c(NS(C)(=O)=O)cccc1N1C[C@@H](C)OC[C@H]1c1ccccc1` [Example 63, N-(2-methyl-3-((2R,5R)-2-methyl-5-phenylmorpholino)phenyl)methanesulfonamide], for which the IC50 came to 4270 nM. This IC50 is about 27-fold higher than that of the compound before.

In turn, `Cc1cc(N2C[C@@H](C)OC[C@H]2c2ccccc2)nc2c1OCC(=O)N2` [Example 5, 8-methyl-6-((2R,5R)-2-methyl-5-phenylmorpholino)-2H-pyrido[3,2-b][1,4]oxazin-3(4H)-one] yielded an IC50 of 174 nM.

The compound `O=C1COc2cnc(N3C[C@@H](C4CC4)OC[C@H]3c3ccccc3)nc2N1` [Example 44, 2-((2R,5R)-2-cyclopropyl-5-phenylmorpholino)-6H-pyrimido[5,4-b][1,4]oxazin-7(8H)-one] displayed an IC50 of 1230 nM.

For `C[C@@H]1CN(c2ccc3c(n2)NC(=O)CO3)CCO1` (single isomer, unassigned) [Example 19], inhibition was half-maximal at 5610 nM (IC50). This IC50 is about 4.6-fold higher than that of the compound before.

`C[C@@H]1CN(c2ncc3c(n2)NC(=O)CO3)[C@H](c2ccc(F)cc2)CO1` [Example 55, 2-((2R,5R)-5-(4-fluorophenyl)-2-methylmorpholino)-6H-pyrimido[5,4-b][1,4]oxazin-7(8H)-one] had an IC50 of 485 nM.

`C[C@H]1CN(c2ncc3c(n2)NC(=O)CO3)[C@@H](c2cccc(F)c2)CO1` (racemic) [Example 51, (±)-2-(cis-5-(3-fluorophenyl)-2-methylmorpholino)-6H-pyrimido[5,4-b][1,4]oxazin-7(8H)-one] showed an IC50 of 537 nM.

Regarding `C[C@@H]1CN(c2cc3c(cn2)OCC(=O)N3)[C@H](c2ccccc2)CO1` [Example 46, 7-((2R,5R)-2-methyl-5-phenylmorpholino)-1H-pyrido[3,4-b][1,4]oxazin-2(3H)-one], it took 252 nM to reach half-maximal inhibition (IC50).

For the compound `C[C@H]1CN(c2cc3c(cn2)OCC(=O)N3)[C@@H](c2ccccc2Cl)CO1` (racemic) [Example 65, (±)-7-(cis-5-(2-chlorophenyl)-2-methylmorpholino)-1H-pyrido[3,4-b][1,4]oxazin-2(3H)-one], the IC50 turned out to be 631 nM. This IC50 is about 2.5-fold higher than that of the compound before.

As for `Cc1ccc(C2(C)CN(c3ccc4c(c3)NC(=O)CO4)CCO2)cc1` (centres unmarked) [Example 74, 6-(2-methyl-2-p-tolylmorpholino)-2H-benzo[b][1,4]oxazin-3(4H)-one], it took 3420 nM to reach half-maximal inhibition (IC50). This IC50 lies about 5.4-fold higher than the previous one.

For the compound `C[C@@H]1CN(c2ncc3c(n2)NC(=O)CO3)[C@H](c2ccccc2F)CO1` (single isomer, unassigned) [Example 35], 104 nM corresponded to half-maximal inhibition (IC50).

Compound `C[C@@H]1CN(c2ccc3c(n2)NC(=O)CO3)C[C@@H](C)O1` [Example 54, 6-((2R,6R)-2,6-dimethylmorpholino)-2H-pyrido[3,2-b][1,4]oxazin-3(4H)-one] had an IC50 of 2800 nM. This IC50 lies about 27-fold higher than the previous one.

Turning to `C[C@@H]1CN(c2ccc3c(n2)NC(=O)CO3)[C@H](c2ccccc2)[C@H](C)O1` [Example 69, 6-((2S,3R,6R)-2,6-dimethyl-3-phenylmorpholino)-2H-pyrido[3,2-b][1,4]oxazin-3(4H)-one], the IC50 was 204 nM.

For `CC[C@@H]1CN(c2ccc3c(n2)NC(=O)CO3)C[C@H](CC)O1` [Example 57, 6-(cis-2,6-diethylmorpholino)-2H-pyrido[3,2-b][1,4]oxazin-3(4H)-one], the IC50 is 4690 nM.

Compound `C[C@H]1CN(c2ccc3c(n2)NC(=O)CO3)[C@@H](c2ccccc2Cl)CO1` (racemic) [Example 66, (±)-6-(cis-5-(2-chlorophenyl)-2-methylmorpholino)-2H-pyrido[3,2-b][1,4]oxazin-3(4H)-one] gave an IC50 of 451 nM.

`O=C1COc2ccc(N3C[C@@H](CF)OC[C@H]3c3ccccc3)nc2N1` [Example 39, 6-((2S,5R)-2-(fluoromethyl)-5-phenylmorpholino)-2H-pyrido[3,2-b][1,4]oxazin-3(4H)-one] displayed an IC50 of 86.7 nM.

In turn, `CCC1CN(c2ccc3c(n2)NC(=O)CO3)CCO1` (centres unmarked) [Example 26, 6-(2-ethylmorpholino)-2H-pyrido[3,2-b][1,4]oxazin-3(4H)-one] returned an IC50 of 3370 nM.

Compound `C[C@@H]1CN(c2ccc3c(c2)NC(=O)CS3)[C@H](c2ccccc2)CO1` [Example 4, 6-((2R,5R)-2-methyl-5-phenylmorpholino)-2H-benzo[b][1,4]thiazin-3(4H)-one] returned an IC50 of 306 nM.

Compound `C[C@@H]1CN(c2nc3c(cc2C#N)OCC(=O)N3)[C@H](c2ccccc2)CO1` [Example 60, 6-((2R,5R)-2-methyl-5-phenylmorpholino)-3-oxo-3,4-dihydro-2H-pyrido[3,2-b][1,4]oxazine-7-carbonitrile] registered an IC50 of 9560 nM.

`O=C1COc2ccc(N3CC4(COC4)OC[C@H]3c3ccccc3)nc2N1` [Example 70, (R)-6-(7-phenyl-2,5-dioxa-8-azaspiro[3.5]nonan-8-yl)-2H-pyrido[3,2-b][1,4]oxazin-3(4H)-one] returned an IC50 of 628 nM.

As for `C[C@H]1CN(c2cc3c(cn2)OCC(=O)N3)[C@@H](c2cccc(F)c2)CO1` (racemic) [Example 50, (±)-7-(cis-5-(3-fluorophenyl)-2-methylmorpholino)-1H-pyrido[3,4-b][1,4]oxazin-2(3H)-one], the IC50 worked out at 272 nM.

Consider `C[C@@H]1CN(c2ccc3c(n2)NC(=O)CO3)[C@@H]2c3ccccc3C[C@@H]2O1` (single isomer, unassigned) [Example 23], for which the IC50 turned out to be 284 nM.

For `CC1(C)CN(c2ccc3c(n2)NC(=O)CO3)[C@H](c2ccccc2)CO1` [Example 13, (R)-6-(2,2-dimethyl-5-phenylmorpholino)-2H-pyrido[3,2-b][1,4]oxazin-3(4H)-one], the midpoint of inhibition, the IC50, lay at 407 nM.

Take `C[C@H]1CN(c2ncc3c(n2)NC(=O)CO3)[C@@H](c2ccccc2Cl)CO1` (racemic) [Example 64, (±)-2-(cis-5-(2-chlorophenyl)-2-methylmorpholino)-6H-pyrimido[5,4-b][1,4]oxazin-7(8H)-one]: inhibition was half-maximal at 449 nM (IC50). The IC50 values of the last two compounds are within 1.5-fold of each other.

The compound `COc1ccccc1[C@H]1CO[C@@H](C)CN1c1cc2c(cn1)OCC(=O)N2` (racemic) [Example 62, (±)-7-(cis-5-(2-methoxyphenyl)-2-methylmorpholino)-1H-pyrido[3,4-b][1,4]oxazin-2(3H)-one] showed an IC50 of 7910 nM.

On to `O=C1COc2ccc(N3C[C@@H](C4CC4)OC[C@H]3c3ccccc3)nc2N1` [Example 31, 6-((2R,5R)-2-cyclopropyl-5-phenylmorpholino)-2H-pyrido[3,2-b][1,4]oxazin-3(4H)-one], for which the midpoint of inhibition, the IC50, lay at 913 nM.

Consider `C[C@@H]1CN(c2ncc3c(n2)NC(=O)CO3)[C@H](c2ccccc2)CO1` [Example 2, 2-((2R,5R)-2-methyl-5-phenylmorpholino)-6H-pyrimido[5,4-b][1,4]oxazin-7(8H)-one], for which half-maximal inhibition (IC50) required 266 nM.
